Data from the supplement of paper PMC10307832.

How the values were obtained:
Experiment in all cases: relative viability (nuclei count vs DMSO), 5 days (fraction); higher = more cells survive
Linsitinib + Foretinib = compound: C[C@]1(O)C[C@@H](c2nc(-c3ccc4ccc(-c5ccccc5)nc4c3)c3c(N)nccn32)C1 [Linsitinib] + COc1cc2c(Oc3ccc(NC(=O)C4(C(=O)Nc5ccc(F)cc5)CC4)cc3F)ccnc2cc1OCCCN1CCOCC1 [Foretinib] (partner 0.25 µM)
Method in brief: (§1)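 Values are medians from duplicate plates. Each reflects relative viability, defined as the nuclei count of treated wells over that of vehicle wells. Lung cancer cell lines in 1536-well plates were pin-tool dosed one day after seeding with one drug alone or with a fixed anchor-drug dose plus five library-drug doses (not always all listed) in √10 steps, then fixed, stained and imaged at 4× after 5 days.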

Linsitinib + AZD7762 = compound: C[C@]1(O)C[C@@H](c2nc(-c3ccc4ccc(-c5ccccc5)nc4c3)c3c(N)nccn32)C1 [Linsitinib] + NC(=O)Nc1cc(-c2cccc(F)c2)sc1C(=O)N[C@H]1CCCNC1 [AZD7762] (partner 0.2 µM)
Method in brief: as §1

Ispinesib + Phenformin = compound: Cc1ccc(C(=O)N(CCCN)[C@@H](c2nc3cc(Cl)ccc3c(=O)n2Cc2ccccc2)C(C)C)cc1 [Ispinesib] + N=C(N)NC(=N)NCCc1ccccc1 [Phenformin] (partner 250 µM)
Method in brief: as §1

Row | Cell Line | relative viability (Linsitinib + Foretinib; first compound 0.01 µM) | relative viability (Linsitinib + Foretinib; first compound 0.03162 µM) | relative viability (Linsitinib + Foretinib; first compound 0.1 µM) | relative viability (Linsitinib + Foretinib; first compound 0.3162 µM) | relative viability (Linsitinib + Foretinib; first compound 1 µM) | relative viability (Linsitinib + AZD7762; first compound 0.01 µM) | relative viability (Linsitinib + AZD7762; first compound 0.03162 µM) | relative viability (Linsitinib + AZD7762; first compound 0.1 µM) | relative viability (Linsitinib + AZD7762; first compound 0.3162 µM) | relative viability (Linsitinib + AZD7762; first compound 1 µM) | relative viability (Ispinesib + Phenformin; first compound 0.001 µM) | relative viability (Ispinesib + Phenformin; first compound 0.003162 µM) | relative viability (Ispinesib + Phenformin; first compound 0.01 µM) | relative viability (Ispinesib + Phenformin; first compound 0.03162 µM) | relative viability (Ispinesib + Phenformin; first compound 0.1 µM)
1 | 201T | 1.19 | 1.15 | 1.07 | 1.2 | 0.82 | 0.554 | 0.59 | 0.675 | 0.509 | 0.612 | 0.462 | 0.533 | 0.559 | 0.427 | 0.24
2 | A549 | 0.97 | 0.953 | 0.999 | 0.695 | 0.875 | – | – | – | – | – | 0.12 | 0.18 | 0.899 | 0.0923 | 0.048
3 | A-427 | 1.12 | 1.15 | 1.19 | – | 1.11 | 0.749 | 0.624 | 0.742 | – | 0.535 | 0.377 | 0.415 | 0.333 | 0.168 | 0.158
4 | ABC-1 | 1.23 | 0.924 | 1.05 | 0.747 | 1.76 | – | – | 0.765 | 0.861 | 0.602 | 0.278 | 0.223 | 0.289 | 0.197 | 0.226
5 | BEN | 0.635 | 0.578 | 0.642 | – | 0.753 | 0.563 | 0.771 | 0.617 | 0.742 | 0.677 | 0.243 | 0.27 | 0.252 | 0.27 | 0.203
6 | CAL-12T | 1.08 | 1.13 | 1.18 | 0.752 | 1.1 | 0.67 | 0.595 | 0.734 | 0.577 | 0.743 | 0.515 | 0.57 | 0.592 | 0.139 | 0.172
7 | COR-L23 | 0.892 | 0.996 | 0.905 | 0.834 | 0.861 | – | – | – | – | – | 0.437 | 0.444 | 0.448 | 0.123 | 0.133
8 | COR-L 105 | 0.969 | 1.03 | 1.08 | 0.956 | 0.908 | – | – | – | – | – | 0.602 | 0.455 | 0.366 | 0.216 | 0.258
9 | Calu-6 | 0.826 | 0.768 | 0.837 | 0.799 | 0.726 | – | – | – | – | – | – | – | – | – | –
10 | ChaGo-K-1 | 0.853 | 0.903 | 0.85 | 0.762 | 0.882 | 0.893 | 0.91 | 0.855 | – | 0.799 | 0.519 | 0.5 | 0.529 | 0.535 | 0.172
11 | EBC-1 | 0.115 | 0.109 | 0.0995 | 0.106 | 0.104 | – | – | – | – | – | – | – | – | – | –
12 | HCC-44 | – | – | – | – | – | 1.01 | 0.962 | 0.995 | 0.855 | 0.925 | 0.252 | 0.175 | 0.146 | 0.1 | 0.0891
13 | IA-LM | 1.12 | 1.06 | 0.867 | 0.783 | 1.07 | – | – | – | – | – | – | – | – | – | –
14 | NCI-H520 | 0.704 | 0.529 | 0.988 | – | 0.952 | – | – | – | – | – | 0.535 | 0.571 | 0.382 | 0.251 | 0.222
15 | NCI-H522 | – | – | – | – | – | 0.771 | 0.958 | 1.09 | 0.654 | 0.612 | 0.613 | 0.627 | 0.694 | 0.603 | 0.349
16 | NCI-H661 | 0.974 | 1.07 | 1.01 | 0.932 | 1 | – | – | – | – | – | 0.288 | 0.299 | 0.224 | 0.195 | 0.216
17 | NCI-H1299 | 1.07 | 1.11 | 1.13 | 1.12 | 1.11 | – | – | – | – | – | – | – | – | – | –
18 | NCI-H1563 | 0.865 | 0.984 | 0.98 | 0.98 | 0.903 | – | – | – | – | – | 0.663 | 0.685 | 0.696 | 0.63 | 0.54
19 | NCI-H1623 | 0.871 | 0.913 | 0.85 | – | 0.671 | – | – | – | – | – | 0.587 | 0.597 | 0.617 | 0.563 | 0.396
20 | NCI-H1648 | – | – | – | – | – | 0.683 | 0.671 | 0.713 | 0.692 | 0.612 | – | – | – | – | –
21 | NCI-H1650 | 1.2 | 0.902 | 1.12 | 0.697 | 1.03 | – | – | – | – | – | 0.512 | 0.467 | 0.407 | 0.182 | 0.305
22 | NCI-H1703 | 0.356 | – | 0.379 | 0.513 | 0.267 | 0.158 | 0.142 | 0.112 | – | 0.12 | – | – | – | – | –
23 | NCI-H1792 | – | – | – | – | – | 0.74 | 0.684 | 0.539 | 0.326 | 0.277 | 0.396 | 0.317 | 0.257 | 0.0806 | 0.154
24 | NCI-H2009 | 1.25 | 1.18 | 1.26 | – | 1.24 | – | – | – | – | – | 0.519 | 0.512 | 0.451 | 0.312 | 0.186
25 | NCI-H2023 | 0.864 | 0.546 | 0.835 | 0.512 | 0.515 | – | – | – | – | – | 0.484 | 0.479 | 0.384 | 0.187 | 0.154
26 | NCI-H2228 | 0.86 | 0.845 | 0.735 | 0.746 | 0.619 | – | – | – | – | – | 0.283 | 0.312 | 0.321 | 0.126 | 0.145
27 | SK-LU-1 | 0.813 | – | 0.804 | 0.712 | 0.72 | – | – | – | – | – | 0.555 | 0.627 | 0.561 | 0.251 | 0.203
28 | SK-MES-1 | 0.865 | 1.08 | 0.999 | 0.778 | 0.81 | – | – | – | – | – | 0.753 | 0.714 | 0.761 | 0.193 | 0.186
29 | SW 1573 | 0.959 | 0.912 | 0.764 | 0.744 | 0.628 | – | – | – | – | – | 0.373 | 0.369 | 0.426 | 0.145 | 0.141
